Common to all, as to type: cell-based
For one assay, the system named is VCaP cells. Briefly: VCaP growth inhibition assay (CTG). Conditions: Homo sapiens, 216 h, 30 pM R1881, 9 days. The method in brief: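 Growth was measured by CTG luminescence after a 9-day exposure of VCaP cells to compound (final 10 fM–100 nM, fivefold steps) in the presence of 30 pM final R1881, in phenol red-free DMEM/5% CSS. IC50 values were derived by nonlinear 4-parameter regression of RLU against concentration.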

The next assay deals with AR / CBP ternary complex (Homo sapiens, UniProt P10275+Q92793). Briefly: Ternary complex formation assay (sandwich ELISA, AR capture, CBP antibody detection) in VCaP cell lysates. Particulars: treated 1.5 hours, rabbit CBP or p300 antibody detection, average, read-out: Average Ternary Complex. The essentials:
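Sandwich ELISA: plates were coated with anti-AR antibody (AR441) and given lysates of VCaP cells treated 1.5 h with bifunctional compound in charcoal-stripped serum. Co-captured CBP or p300 was probed with rabbit mAbs and HRP secondary. Chemifluorescent signal (ex 570/em 585) was read at 0, 5 and 15 min.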
On the technique in general: An ELISA detects its analyte on a solid surface through an enzyme-linked reagent.

For a further assay, the system named is HEK-293 cells. Briefly: HEK-293 growth inhibition assay (CTG). Conditions: Homo sapiens, HEK293, 72 h, 3 days. Here is the method:
HEK-293 cells (ATCC Cat #CRL-1573) are plated at 3×10^3 cells per well of a white plastic 96-well cluster plate (Thermo Scientific Nunc Cat #165306) in 200 uL DMEM (ATCC Cat #30-2002) media with 10% FBS (Gibco Cat #26140-079). Cluster plates are returned to the incubator (37*C/5% CO2) for 24 hours prior to treatment. Compounds (200X) were added to each well in a volume of 1 uL, with serial dilutions (1:5) from 2 mM to 200 pM (final concentrations in well are 10 uM to 1 pM). Cluster plates are returned to the incubator for 3 days.
After the 3-day treatment period, 100 uL media was removed from each well by aspiration and 100 uL room temperature CTG reagent (Promega Cat #G7573) is added back to each well. The cluster plates are placed on a shaker and incubated at room temperature for 20 minutes. Following this shaking/incubation, cluster plates are read on a luminometer (BMG ClarioStar). IC50 values are obtained by graphing the RLU data vs. compound concentration with nonlinear regression 4-parameter logistic curves (GraphPad Prism).

Bounds are passed on as bounds.

The results in this text go back to patent US20250136578A1 (Kolm Therapeutics Inc., priority 2023, published 2025).

By IC50 is commonly meant the concentration that inhibits the measured activity by half. A lower IC50 goes with inhibition by little substance.

AR / CBP ternary complex, sequence (P10275 whole entry): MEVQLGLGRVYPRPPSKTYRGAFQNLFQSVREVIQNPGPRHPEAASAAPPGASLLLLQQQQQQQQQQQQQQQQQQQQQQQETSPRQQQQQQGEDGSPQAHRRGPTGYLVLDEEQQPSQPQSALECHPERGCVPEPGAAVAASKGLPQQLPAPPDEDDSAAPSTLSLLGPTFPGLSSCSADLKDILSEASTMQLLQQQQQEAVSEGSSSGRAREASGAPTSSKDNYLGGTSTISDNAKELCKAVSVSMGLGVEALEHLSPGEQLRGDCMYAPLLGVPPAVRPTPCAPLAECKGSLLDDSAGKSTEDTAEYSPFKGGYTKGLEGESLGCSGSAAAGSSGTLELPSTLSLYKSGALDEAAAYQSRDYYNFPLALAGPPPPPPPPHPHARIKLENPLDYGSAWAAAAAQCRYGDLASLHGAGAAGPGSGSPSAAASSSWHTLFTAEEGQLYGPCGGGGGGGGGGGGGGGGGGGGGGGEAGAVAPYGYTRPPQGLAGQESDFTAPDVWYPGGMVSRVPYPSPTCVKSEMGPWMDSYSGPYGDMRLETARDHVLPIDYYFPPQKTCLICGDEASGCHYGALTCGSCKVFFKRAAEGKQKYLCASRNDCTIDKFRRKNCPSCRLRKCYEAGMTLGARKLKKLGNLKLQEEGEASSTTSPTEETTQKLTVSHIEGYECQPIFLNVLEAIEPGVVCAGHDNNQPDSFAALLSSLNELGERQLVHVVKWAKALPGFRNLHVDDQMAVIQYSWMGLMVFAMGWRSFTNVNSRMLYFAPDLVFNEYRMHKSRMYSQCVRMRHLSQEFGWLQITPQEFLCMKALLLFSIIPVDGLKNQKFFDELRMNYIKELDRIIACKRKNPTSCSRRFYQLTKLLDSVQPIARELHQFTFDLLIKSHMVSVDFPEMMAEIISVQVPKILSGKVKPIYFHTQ
AR / CBP ternary complex, sequence (Q92793 2-2442): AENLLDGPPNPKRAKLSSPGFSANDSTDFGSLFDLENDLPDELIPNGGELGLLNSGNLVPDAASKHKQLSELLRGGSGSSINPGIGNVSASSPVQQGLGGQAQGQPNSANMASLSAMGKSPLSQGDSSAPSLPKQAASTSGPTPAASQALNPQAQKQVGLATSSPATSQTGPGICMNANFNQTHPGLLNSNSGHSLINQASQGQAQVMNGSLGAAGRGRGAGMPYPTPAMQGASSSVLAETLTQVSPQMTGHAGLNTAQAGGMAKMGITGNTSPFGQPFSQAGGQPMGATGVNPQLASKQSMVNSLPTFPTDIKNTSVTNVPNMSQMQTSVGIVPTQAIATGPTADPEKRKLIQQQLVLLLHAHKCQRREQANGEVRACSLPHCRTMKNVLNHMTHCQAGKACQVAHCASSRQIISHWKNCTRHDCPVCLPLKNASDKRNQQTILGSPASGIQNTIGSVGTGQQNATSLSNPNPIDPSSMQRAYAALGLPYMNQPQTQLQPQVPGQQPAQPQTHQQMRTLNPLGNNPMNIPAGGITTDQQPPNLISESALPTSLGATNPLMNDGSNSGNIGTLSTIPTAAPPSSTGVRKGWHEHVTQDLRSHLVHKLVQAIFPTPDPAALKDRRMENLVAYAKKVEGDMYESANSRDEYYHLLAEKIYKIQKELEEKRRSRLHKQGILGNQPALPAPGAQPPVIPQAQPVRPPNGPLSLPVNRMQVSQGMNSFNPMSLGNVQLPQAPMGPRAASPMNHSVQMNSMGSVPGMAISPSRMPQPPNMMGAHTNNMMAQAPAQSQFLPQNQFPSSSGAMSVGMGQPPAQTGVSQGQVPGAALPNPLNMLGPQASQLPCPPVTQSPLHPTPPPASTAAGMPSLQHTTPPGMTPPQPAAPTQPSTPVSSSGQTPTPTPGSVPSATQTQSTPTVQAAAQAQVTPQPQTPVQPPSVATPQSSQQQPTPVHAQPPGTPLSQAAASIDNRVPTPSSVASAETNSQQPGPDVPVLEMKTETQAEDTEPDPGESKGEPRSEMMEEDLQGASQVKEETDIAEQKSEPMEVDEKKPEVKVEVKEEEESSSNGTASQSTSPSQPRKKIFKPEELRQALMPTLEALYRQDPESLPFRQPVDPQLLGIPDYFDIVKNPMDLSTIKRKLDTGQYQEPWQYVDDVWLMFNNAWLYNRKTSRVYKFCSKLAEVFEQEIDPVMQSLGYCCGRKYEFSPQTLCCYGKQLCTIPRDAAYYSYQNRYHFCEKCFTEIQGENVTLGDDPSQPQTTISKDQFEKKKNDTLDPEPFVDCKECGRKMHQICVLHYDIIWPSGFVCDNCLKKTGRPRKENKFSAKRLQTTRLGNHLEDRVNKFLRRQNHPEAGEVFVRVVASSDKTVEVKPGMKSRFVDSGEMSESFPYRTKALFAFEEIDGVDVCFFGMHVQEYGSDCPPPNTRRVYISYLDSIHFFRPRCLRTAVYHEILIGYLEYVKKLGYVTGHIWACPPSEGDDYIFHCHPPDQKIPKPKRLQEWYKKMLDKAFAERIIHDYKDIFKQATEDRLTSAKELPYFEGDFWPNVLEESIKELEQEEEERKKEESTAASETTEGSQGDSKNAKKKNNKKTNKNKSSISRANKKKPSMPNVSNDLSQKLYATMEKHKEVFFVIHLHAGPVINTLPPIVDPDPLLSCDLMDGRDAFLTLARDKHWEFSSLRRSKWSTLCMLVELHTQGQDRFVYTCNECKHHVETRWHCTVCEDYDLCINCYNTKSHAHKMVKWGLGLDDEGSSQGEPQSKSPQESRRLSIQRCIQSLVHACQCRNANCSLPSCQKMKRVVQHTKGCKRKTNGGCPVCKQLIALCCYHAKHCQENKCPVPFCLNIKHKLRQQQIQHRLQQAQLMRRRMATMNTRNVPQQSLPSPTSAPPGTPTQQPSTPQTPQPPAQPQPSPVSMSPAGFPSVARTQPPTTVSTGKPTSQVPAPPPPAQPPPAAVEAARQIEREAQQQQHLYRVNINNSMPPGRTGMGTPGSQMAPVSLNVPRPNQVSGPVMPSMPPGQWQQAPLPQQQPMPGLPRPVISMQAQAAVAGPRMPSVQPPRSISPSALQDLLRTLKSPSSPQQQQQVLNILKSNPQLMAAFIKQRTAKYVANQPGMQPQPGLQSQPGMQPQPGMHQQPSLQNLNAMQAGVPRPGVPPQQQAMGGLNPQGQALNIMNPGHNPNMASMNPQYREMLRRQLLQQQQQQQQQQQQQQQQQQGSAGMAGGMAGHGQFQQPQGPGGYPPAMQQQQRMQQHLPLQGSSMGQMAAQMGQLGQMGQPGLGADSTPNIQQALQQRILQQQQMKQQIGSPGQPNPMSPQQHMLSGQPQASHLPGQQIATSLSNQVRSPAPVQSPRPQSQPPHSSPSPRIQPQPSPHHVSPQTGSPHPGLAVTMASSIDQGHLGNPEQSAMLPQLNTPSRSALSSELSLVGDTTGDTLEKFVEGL

`CC(=O)N1CCc2c(c(N3CCCc4cc(-c5cnn(C)c5)c(C(F)F)cc43)nn2C2CCN(C(=O)COC3CCN(c4ccc(C(=O)N[C@H]5CC[C@H](Oc6ccc(C#N)c(Cl)c6)CC5)nn4)CC3)CC2)C1` [Compound 1, 6-[4-[2-[4-[5-acetyl-3-[7-(difluoromethyl)-6-(1-methylpyrazol-4-yl)-3,4-dihydro-2H-quinolin-1-yl]-6,7-dihydro-4H-pyrazolo[4,3-c]pyridin-1-yl]-1-piperidyl]-2-oxo-ethoxy]-1-piperidyl]-N-[4-(3-chloro-4-cyano-phenoxy)cyclohexyl]pyridazine-3-carboxamide]: the 50% inhibitory concentration (IC50) with VCaP cells was no more than 0.1 nM; in the assay on HEK-293 cells, greater than 10000 nM. Further, at AR / CBP ternary complex, the EC50 was less than 1 nM.
The compound `CC(=O)N1CCc2c(c(N3CCCc4ccc(C(F)F)cc43)nn2C2CC3(C2)CN(C(=O)C2CC4(C2)CN(c2ccc(C(=O)N[C@H]5CC[C@H](Oc6ccc(C#N)c(Cl)c6)CC5)nn2)C4)C3)C1` (some centres unmarked) [Compound 42, 6-[6-[6-[5-acetyl-3-[7-(difluoromethyl)-3,4-dihydro-2H-quinolin-1-yl]-6,7-dihydro-4H-pyrazolo[4,3-c]pyridin-1-yl]-2-azaspiro[3.3]heptane-2-carbonyl]-2-azaspiro[3.3]heptan-2-yl]-N-[4-(3-chloro-4-cyano-phenoxy)cyclohexyl]pyridazine-3-carboxamide] gave an IC50 in the assay with VCaP cells of 0.1 to 1 nM. The EC50 on AR / CBP ternary complex was in the range of 1 to 10 nM.
In the assay on VCaP cells, `CN1C(=O)CCc2cc(-c3cccc4cc(-c5ccc(CCC6CCN(c7ccc(C(=O)N[C@H]8CC[C@H](Oc9ccc(C#N)c(Cl)c9)CC8)nn7)CC6)nc5)ncc34)ccc21` [Compound 58, N-[4-(3-chloro-4-cyano-phenoxy)cyclohexyl]-6-[4-[2-[5-[8-(1-methyl-2-oxo-3,4-dihydroquinolin-6-yl)-3-isoquinolyl]-2-pyridyl]ethyl]-1-piperidyl]pyridazine-3-carboxamide] registered an IC50 greater than 100 nM. The EC50 at AR / CBP ternary complex lay within 10 to 100 nM.
In turn, `CC(=O)N1CCc2c(c(N3CCCc4cc(-c5cnn(C)c5)c(C(F)F)cc43)nn2C2CCC3(CC2)CN(C2CCN(c4ccc(C(=O)N[C@H]5CC[C@H](Oc6ccc(C#N)c(Cl)c6)CC5)nn4)CC2)C3)C1` [Compound 238, 6-[4-[7-[5-acetyl-3-[7-(difluoromethyl)-6-(1-methylpyrazol-4-yl)-3,4-dihydro-2H-quinolin-1-yl]-6,7-dihydro-4H-pyrazolo[4,3-c]pyridin-1-yl]-2-azaspiro[3.5]nonan-2-yl]-1-piperidyl]-N-[4-(3-chloro-4-cyano-phenoxy)cyclohexyl]pyridazine-3-carboxamide] yielded an IC50 with VCaP cells of no more than 0.1 nM. Moreover, on AR / CBP ternary complex, the EC50 is less than 1 nM.
The like results for `CC(=O)N1CCc2c(c(-c3cccc4cc(-c5cnn(C6CCC7(CC6)CCN(c6ccc(C(=O)N[C@H]8CC[C@H](Oc9ccc(C#N)c(Cl)c9)CC8)nn6)CC7)c5)ncc34)nn2C2CCOCC2)C1` [Compound 182] were, in that order, no more than 0.1 nM and less than 1 nM.
Compound `CC(=O)N1CCc2c(c(N3CCCc4cc(-c5cnn(C)c5)c(C(F)F)cc43)nn2C2CCN([C@H]3CCCN(c4ccc(C(=O)N[C@H]5CC[C@H](Oc6ccc(C#N)c(Cl)c6)CC5)nn4)C3)CC2)C1` [Compound 258, 6-[(3S)-3-[4-[5-acetyl-3-[7-(difluoromethyl)-6-(1-methylpyrazol-4-yl)-3,4-dihydro-2H-quinolin-1-yl]-6,7-dihydro-4H-pyrazolo[4,3-c]pyridin-1-yl]-1-piperidyl]-1-piperidyl]-N-[4-(3-chloro-4-cyano-phenoxy)cyclohexyl]pyridazine-3-carboxamide] registered an IC50 in the assay on VCaP cells of 1 to 100 nM. In addition, the EC50 on AR / CBP ternary complex was in the range of 1 to 10 nM.
Regarding `CC(=O)N1CCc2c(c(N3CCCc4cc(-c5cnn(C)c5)c(C(F)F)cc43)nn2[C@H]2CC[C@H](N3CC4(CC(Oc5ccc(C(=O)N[C@H]6CC[C@H](Oc7ccc(C#N)c(Cl)c7)CC6)nn5)C4)C3)CC2)C1` [Compound 249], the IC50 with VCaP cells was no more than 0.1 nM. In addition, on AR / CBP ternary complex, the EC50 is less than 1 nM.
For `CC(=O)N1CCc2c(c(N3CCCc4cc(-c5cnn(C)c5)c(C(F)F)cc43)nn2[C@H]2CC[C@@]3(CCCN(c4ccc(C(=O)N[C@H]5CC[C@H](Oc6ccc(C#N)c(Cl)c6)CC5)nn4)C3)CC2)C1` [Compound 267, 6-[9-[5-acetyl-3-[7-(difluoromethyl)-6-(1-methylpyrazol-4-yl)-3,4-dihydro-2H-quinolin-1-yl]-6,7-dihydro-4H-pyrazolo[4,3-c]pyridin-1-yl]-2-azaspiro[5.5]undecan-2-yl]-N-[4-(3-chloro-4-cyano-phenoxy)cyclohexyl]pyridazine-3-carboxamide] the same measures were 1 to 100 nM and less than 1 nM.
For `C[C@@H]1CC(=O)Nc2cc(C3CCN(CC4CCN(c5ccc(C(=O)N[C@H]6CC[C@H](Oc7ccc(C#N)c(Cl)c7)CC6)nn5)CC4)CC3)cc(-c3ccc4c(c3)c(C3CC3)nn4C)c2N1` [Compound 88, N-[4-(3-chloro-4-cyano-phenoxy)cyclohexyl]-6-[4-[[4-[(4R)-6-(3-cyclopropyl-1-methyl-indazol-5-yl)-4-methyl-2-oxo-1,3,4,5-tetrahydro-1,5-benzodiazepin-8-yl]-1-piperidyl]methyl]-1-piperidyl]pyridazine-3-carboxamide] the same measures were 0.1 to 1 nM and 1 to 10 nM.
The like results for `C[C@@H]1CC(=O)Nc2cccc(N3CCCc4cc(-c5cnn(CCC6CCN(c7ccc(C(=O)N[C@H]8CC[C@H](Oc9ccc(C#N)c(Cl)c9)CC8)nn7)CC6)c5)c(C(F)F)cc43)c2N1` [Compound 36, N-[4-(3-chloro-4-cyano-phenoxy)cyclohexyl]-6-[4-[2-[4-[7-(difluoromethyl)-1-[(4R)-4-methyl-2-oxo-1,3,4,5-tetrahydro-1,5-benzodiazepin-6-yl]-3,4-dihydro-2H-quinolin-6-yl]pyrazol-1-yl]ethyl]-1-piperidyl]pyridazine-3-carboxamide] were, in that order, 1 to 100 nM and 10 to 100 nM.
The compound `COc1cc(O[C@H]2CC[C@H](NC(=O)c3ccc(N4CCC(CN5CCC(n6nc(N7CCCc8cc(-c9cnn(C)c9)c(C(F)F)cc87)c7c6CCN(C(C)=O)C7)CC5)CC4)cc3)CC2)ccc1C#N` [Compound 140, 4-[4-[[4-[5-acetyl-3-[7-(difluoromethyl)-6-(1-methylpyrazol-4-yl)-3,4-dihydro-2H-quinolin-1-yl]-6,7-dihydro-4H-pyrazolo[4,3-c]pyridin-1-yl]-1-piperidyl]methyl]-1-piperidyl]-N-[4-(4-cyano-3-methoxy-phenoxy)cyclohexyl]benzamide] showed an IC50 in the assay on VCaP cells of no more than 0.1 nM. Also, the EC50 on AR / CBP ternary complex was less than 1 nM.
